Source: patent EP3895695A1, “SUPERCRITICAL CARBON DIOXIDE-BASED METHODOLOGY TO FORMULATE BIOACTIVE PREPARATIONS” (Universidad Autónoma de Madrid, priority 2020, dated 2021)

Tests used:
[1] = HPLC quantification of quercetin, rosmarinic acid and carnosic acid in BIOSAS lipid products; type: physicochemical; conditions: for amount dispersed in oil: rosemary BIOSAS dispersion
Description: Carnosic acid and rosmarinic acid were identified and quantified in the case of BIOSAS rosemary samples following the procedures described by […]. Garcia-Risco, T. Fornari, G. Reglero, Isolation of carsonic acid from rosemary extracts using semi-preparative supercritical fluid chromatography, J. Chromatogr. A. 1286 (2013) 208-215. doi:10.1016/j.chroma.2013.02.044 using a HPLC Prominence-i LC-2030C 3D Plus (Shimadzu) equipped with a RP-C18 (250 × 4.6 mm; 3 μm) chromatography column. The mobile phase consisted of 0.1 % of phosphoric acid in water (solvent A) and acetonitrile (solvent B) applying the following gradient: 0-8 min, 77 % A, 8-25 min, 25 % A, 25-40 min 25 % A and the 40-45 min 77 % A. Initial conditions were gained in 5 min. The flow rate was constant at 0.7 ml/min. Injection volume was 20 μl and the detection was accomplished using a diode array detection system, storing the signal at a wavelength of 230, 280 and 350 nm. In the case of quercetin BIOSAS dispersion, HPLC analysis was carried out as previously described by Wei et al.. A Prominence-i LC-2030C 3D Plus (Shimadzu) equipped with a quaternary solvent delivery system, an autosampler and DAD detector and RP-C18 (250 × 4.6 mm; 3 μm) was used. The column temperature was set at 25 °C. The mobile phase consists of acetonitrile (A) and 0.026% aqueous H3PO4 (v/v), applying the following gradient elution: at 0-20 min, 20%-25% A, 20-30 min, 25%-34% A, 30-50 min, 34%-50% A, 50-60 min, 50%-60% A and 60-80 min, 60% A. After 5 min, the initial conditions were achieved. The flow rate was 0.7 ml/min and was kept constant during analysis. Injection volume was 20 μl and detection was accomplished at 254, 280 and 370 nm.

mice = conditions: intravenous administration; cited from earlier work

| concentration of quercetin in the flaxseed oil ([1]; HPLC analysis, BIOSAS 20 MPa, 313.15 K) | amount dispersed by BIOSAS process ([1]; in high molecular weight triacylglycerols (flaxseed oil), 313.15 K) | Structure (SMILES) | amount dispersed in oil ([1]; argan oil) | amount dispersed in oil ([1]; flaxseed oil) | LD50 (mice) |
| --- | --- | --- | --- | --- | --- |
| – | – | O=C(/C=C/c1ccc(O)c(O)c1)O[C@H](Cc1ccc(O)c(O)c1)C(=O)O [rosmarinic acid] | ~0.40 mg/g | 0.51 mg/g | 561 mg/kg |
| 1.55 ± 0.05 % mass | > 15 mg/g | O=c1c(O)c(-c2ccc(O)c(O)c2)oc2cc(O)cc(O)c12 [quercetin, 2-(3,4-Dihydroxyphenyl)-3,5,7-trihydroxy-4H-1-benzopyran-4-one,3,3',4',5,6-Pentahydroxyflavone - Quercetin] | – | – | – |
| – | – | CC(C)c1cc2c(c(O)c1O)[C@@]1(C(=O)O)CCCC(C)(C)[C@@H]1CC2 [carnosic acid, Carnosic acid] | 4.90 mg/g | 6.39 mg/g | – |
